Consider 12 compounds from ChEMBL document CHEMBL1201862, “PubChem BioAssay data set” (2004).

Test systems include UACC-257; OVCAR-3; UO-31; OVCAR-5; HCT-116; IGROV-1; MDA-N; NCI-H460; SF-295; NCI-H522; M14; NCI-H226; SNB-75; K562; HCT-15; MDA-MB-435; SK-MEL-28; RPMI-8226; MCF7.
Common to all, as to assay: NCI tumour cell line growth inhibition, 48 h

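In this assay, cells in 96-well plates receive the compound at five concentrations for 48 hours. Endpoints are linearly interpolated between the surrounding concentrations. GI50 = concentration required for 50% inhibition of growth.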 Activity calls are given as the source filed them. No stated cut-off is given here; in the data, active = GI50 up to about 1.1 µM and inactive = higher.

Turning to `CCCCN(CC)c1nc(C)nc2c1c(C)c(C)n2-c1c(C)cc(C)cc1C` [ANTALARMIN], the GI50 in the experiment with UACC-257 is 13.3 µM (inactive); with OVCAR-3 it was 13.3 µM (inactive); in the experiment with UO-31 it was 14.7 µM (inactive); in the experiment on OVCAR-5, 15.3 µM (inactive); with HCT-116, 10.1 µM (inactive); with IGROV-1 it was 14.5 µM (inactive). In addition, the GI50 in the experiment on MDA-N was 20.1 µM (inactive); in the experiment with NCI-H460, 13.2 µM (inactive); in the experiment on SF-295, 14.3 µM (inactive); in the experiment on NCI-H522 it was 12.8 µM (inactive); in the experiment with M14, 17.9 µM (inactive); with NCI-H226, 14.8 µM (inactive). Further, the GI50 is 14.3 µM (inactive) with SNB-75; 12.5 µM (inactive) in the experiment on K562; 13.6 µM with HCT-15; 17.1 µM (inactive) in the experiment with MDA-MB-435; 15.8 µM (inactive) in the experiment on SK-MEL-28; 7.87 µM (inactive) in the experiment with RPMI-8226.
As for `Cc1[nH]nc(-c2ccon2)c1N=O`, the GI50 with MCF7 is 22.9 µM (inactive); with UACC-257, 17.4 µM (inactive); in the experiment with OVCAR-3, 18.4 µM (inactive); in the experiment with UO-31 it was 19.8 µM (inactive); with OVCAR-5 it was 19.3 µM (inactive); in the experiment on HCT-116 it was 23.1 µM (inactive). Besides, the GI50 with IGROV-1 was 23 µM (inactive); in the experiment with NCI-H460 it was 36.1 µM (inactive); in the experiment on SF-295 it was 18.7 µM (inactive); in the experiment with NCI-H522, 20 µM (inactive); in the experiment with M14 it was 20.8 µM (inactive); in the experiment on NCI-H226 it was 14.6 µM (inactive). In addition, the GI50 with SNB-75 was 32.2 µM (inactive); in the experiment on K562, 18.5 µM (inactive); in the experiment with HCT-15 it was 18.2 µM; in the experiment on MDA-MB-435, 20.5 µM (inactive); with SK-MEL-28, 20.2 µM (inactive); in the experiment with RPMI-8226 it was 3.78 µM (inactive).
Take `Cn1c(-c2cccc(N)c2)[n+](C)c2ccccc21`: the GI50 with MCF7, in the experiment on UACC-257, in the experiment with OVCAR-3, in the experiment with UO-31, with OVCAR-5 and with HCT-116 was > 100 µM (inactive) in each case. For the same compound, the GI50 in the experiment with IGROV-1, in the experiment on NCI-H460, in the experiment with SF-295, with M14, in the experiment with NCI-H226 and in the experiment on SNB-75 was > 100 µM (inactive) throughout. For the same compound, the GI50 was > 100 µM (inactive) with K562; over 100 µM with HCT-15; > 100 µM (inactive) in the experiment with MDA-MB-435; > 100 µM (inactive) in the experiment with SK-MEL-28; > 100 µM (inactive) in the experiment with RPMI-8226.
As for `CC(=O)N1OC(C)CC1Nc1ccc(Br)cc1` (centres undefined), the GI50 was 21.5 µM (inactive) in the experiment on MCF7; 82.4 µM (inactive) in the experiment on OVCAR-3; 0.0955 µM (active) in the experiment with UO-31; 96.2 µM (inactive) with OVCAR-5; 4.03 µM (inactive) in the experiment with HCT-116; > 100 µM (inactive) with IGROV-1. The GI50 in the experiment with MDA-N is 0.252 µM (active); in the experiment with NCI-H460, 8.04 µM (inactive); with SF-295, > 100 µM (inactive); with M14, 1.6 µM (inactive); in the experiment on NCI-H226, 4.39 µM (inactive); in the experiment on K562, 0.345 µM (active). Besides, the GI50 in the experiment on HCT-15 was over 100 µM; with MDA-MB-435, 0.577 µM (active).
For `COc1ccc2cc(/C=N\NC(=O)Nc3cccc4ccccc34)ccc2c1`, the GI50 was 20.3 µM (inactive) with MCF7; 32.4 µM (inactive) in the experiment with UACC-257; 87.3 µM (inactive) in the experiment on UO-31; 69.5 µM (inactive) in the experiment with OVCAR-5; 16.6 µM (inactive) in the experiment with HCT-116; 66.1 µM (inactive) in the experiment with IGROV-1. Moreover, the GI50 is 42 µM (inactive) in the experiment on MDA-N; 17.9 µM (inactive) in the experiment with NCI-H460; 80 µM (inactive) in the experiment with NCI-H522; 33.4 µM (inactive) in the experiment with M14; 28.2 µM (inactive) with NCI-H226; 11.1 µM (inactive) in the experiment on SNB-75. Besides, the GI50 in the experiment on K562 was 14.6 µM (inactive); in the experiment on HCT-15, 67.5 µM; in the experiment with MDA-MB-435, 50.6 µM (inactive); in the experiment with SK-MEL-28, 33 µM (inactive).
For the compound `Nc1c(/N=N/c2ccc(-c3ccc(/N=N/c4c(O)ccc5cc(S(=O)(=O)O)cc(S(=O)(=O)O)c45)cc3)cc2)c(S(=O)(=O)O)cc2cc(S(=O)(=O)O)c(/N=N/c3ccccc3)c(O)c12`, the GI50 with MCF7 is > 100 µM (inactive); with UACC-257, > 100 µM (inactive); in the experiment with OVCAR-3, > 100 µM (inactive); in the experiment with UO-31, 6.84 µM (inactive); in the experiment on OVCAR-5, > 100 µM (inactive); in the experiment with HCT-116, > 100 µM (inactive). Besides, the GI50 in the experiment with IGROV-1 is > 100 µM (inactive); in the experiment with NCI-H460, > 100 µM (inactive); with SF-295, > 77.1 µM (inactive); in the experiment with NCI-H522, > 100 µM (inactive); with NCI-H226, 19.6 µM (inactive); in the experiment with SNB-75, 35.7 µM (inactive). The GI50 with K562 was > 100 µM (inactive); in the experiment with HCT-15, over 100 µM; in the experiment with SK-MEL-28, > 100 µM (inactive); in the experiment with RPMI-8226, > 100 µM (inactive).
Turning to `CC(C)CCNC(=O)c1ccc(CNC(=O)/C=C/c2ccc(OCc3ccccc3)cc2)cc1`, the GI50 in the experiment on MCF7, with UACC-257, in the experiment on OVCAR-3, in the experiment on UO-31, with OVCAR-5 and in the experiment with HCT-116 was > 100 µM (inactive) each time. Further, the GI50 with MDA-N is > 100 µM (inactive); in the experiment on NCI-H460, > 100 µM (inactive); in the experiment with SF-295, > 100 µM (inactive); with M14 it was > 100 µM (inactive); with NCI-H226 it was 39.9 µM (inactive); in the experiment with SNB-75, > 100 µM (inactive). The GI50 in the experiment on K562 is > 100 µM (inactive); in the experiment on HCT-15, over 100 µM; in the experiment on MDA-MB-435, > 100 µM (inactive); in the experiment with SK-MEL-28 it was > 100 µM (inactive); in the experiment on RPMI-8226, > 100 µM (inactive).
`CCOC(=O)/C(=N/Nc1ccccc1)N1C(=S)N(C)N=C(C)C=C1S`: the GI50 in the experiment with MCF7, in the experiment on UACC-257, in the experiment on OVCAR-3, with UO-31, with OVCAR-5 and in the experiment on HCT-116 was > 100 µM (inactive) throughout. The GI50 in the experiment on IGROV-1 was > 100 µM (inactive); with NCI-H460, > 100 µM (inactive); with SF-295, 28.4 µM (inactive); in the experiment on NCI-H522, 27 µM (inactive); with M14 it was > 100 µM (inactive); in the experiment with SNB-75, 10 µM (inactive). The GI50 in the experiment on K562 is > 100 µM (inactive); in the experiment with HCT-15, over 100 µM; in the experiment with MDA-MB-435, > 100 µM (inactive); in the experiment with SK-MEL-28 it was > 100 µM (inactive); in the experiment on RPMI-8226, > 100 µM (inactive).
Regarding `COc1cccc(Nc2nc(-c3cccs3)nc3ccc(Br)cc23)c1`, the GI50 in the experiment on MCF7 is 12.7 µM (inactive); in the experiment on UACC-257, > 100 µM (inactive); in the experiment with OVCAR-3, 36.6 µM (inactive); with UO-31 it was > 100 µM (inactive); in the experiment with OVCAR-5 it was 95.3 µM (inactive); in the experiment with HCT-116, 50.5 µM (inactive). The GI50 was > 100 µM (inactive) in the experiment with IGROV-1; 25.6 µM (inactive) in the experiment on NCI-H460; 36.6 µM (inactive) in the experiment with SF-295; > 100 µM (inactive) with NCI-H522; > 100 µM (inactive) in the experiment on M14; 78 µM (inactive) in the experiment with NCI-H226. Besides, the GI50 in the experiment with K562 is > 100 µM (inactive); in the experiment on HCT-15, over 100 µM; in the experiment with MDA-MB-435 it was 76 µM (inactive); in the experiment with RPMI-8226 it was 1.67 µM (inactive).
Consider `COCCOc1nc(-c2ccccc2)nc2ccccc12`, for which the GI50 in the experiment with MCF7 is 37.2 µM (inactive); in the experiment on UACC-257, > 100 µM (inactive); in the experiment with OVCAR-3, 95.1 µM (inactive); in the experiment on UO-31, 38.6 µM (inactive); with OVCAR-5 it was > 100 µM (inactive); with HCT-116, 46.1 µM (inactive). Besides, the GI50 in the experiment with IGROV-1 is 98.2 µM (inactive); in the experiment on MDA-N, 32.5 µM (inactive); with NCI-H460, 19.3 µM (inactive); in the experiment on SF-295, 43.1 µM (inactive); in the experiment on NCI-H522 it was 35.3 µM (inactive); with M14, 27.7 µM (inactive). The GI50 was 60.8 µM (inactive) in the experiment on SNB-75; 35.5 µM (inactive) with K562; 19.2 µM with HCT-15; 52.4 µM (inactive) in the experiment with MDA-MB-435; 53.5 µM (inactive) in the experiment on SK-MEL-28; 15.7 µM (inactive) in the experiment on RPMI-8226.
As to `C/C=C/c1cc2c(c(=O)o1)C(=O)[C@@H](O)[C@H](C)O2`, the GI50 was 4.08 µM (inactive) in the experiment with MCF7; 14.4 µM (inactive) in the experiment on UACC-257; 17.7 µM (inactive) in the experiment on OVCAR-3; 19.7 µM (inactive) in the experiment with UO-31; 17.2 µM (inactive) in the experiment with OVCAR-5; 7.8 µM (inactive) with HCT-116. The GI50 with IGROV-1 is 8.32 µM (inactive); in the experiment on NCI-H460, 21.7 µM (inactive); in the experiment on SF-295, 21 µM (inactive); in the experiment on NCI-H522 it was 7.91 µM (inactive); with NCI-H226, 16.9 µM (inactive); in the experiment with SNB-75, 18.7 µM (inactive). Further, the GI50 with K562 is 8.59 µM (inactive); in the experiment with HCT-15 it was 11.2 µM; in the experiment on SK-MEL-28, 15 µM (inactive); in the experiment with RPMI-8226 it was 4.09 µM (inactive).
`CCCCOC(=O)NC(Nc1ccc(S(N)(=O)=O)cc1)(C(F)(F)F)C(F)(F)F`: the GI50 in the experiment on MCF7 is > 100 µM (inactive); with UACC-257, > 100 µM (inactive); with OVCAR-3 it was > 100 µM (inactive); in the experiment on UO-31 it was 79.8 µM (inactive); in the experiment with OVCAR-5, > 100 µM (inactive); in the experiment with HCT-116, > 100 µM (inactive). The GI50 in the experiment on NCI-H460, with NCI-H522, in the experiment on M14, in the experiment on NCI-H226, with SNB-75 and in the experiment on K562 was > 100 µM (inactive) each time. Besides, the GI50 in the experiment with HCT-15 was over 100 µM; in the experiment with MDA-MB-435, > 100 µM (inactive); in the experiment on SK-MEL-28, > 100 µM (inactive); in the experiment with RPMI-8226, > 100 µM (inactive).
